Test system: NOMO1
Assay: cell viability relative to DMSO control; higher = less cytotoxic
Details: 48 h
Summary of the method: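 Viability is expressed as a percentage of DMSO wells within each plate, and cell-free wells serve as background. Seeding densities in the 1536-well plates (5 μl) were 500 cells/well for NOMO1 or SEM leukemia cells and 1000 cells/well for P12-Ichikawa. Each line was adapted for at least four passages in each medium. Library compounds in DMSO were pin-dosed at 47 μM to 0.79 nM (11 points, threefold), and CellTiter-Glo One luminescence was read after 48 h at 37°C.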

[1] = RPMI 5 mM glucose + 10% FBS, 0.000781 µM
[2] = RPMI 5 mM glucose + 10% FBS, 0.00234 µM
[3] = RPMI 5 mM glucose + 10% FBS, 0.00702 µM
[4] = RPMI 5 mM glucose + 10% FBS, 0.0211 µM
[5] = RPMI 5 mM glucose + 10% FBS, 0.0632 µM
[6] = RPMI 5 mM glucose + 10% FBS, 0.19 µM
[7] = RPMI 5 mM glucose + 10% FBS, 0.569 µM
[8] = RPMI 5 mM glucose + 10% FBS, 1.71 µM
[9] = RPMI 5 mM glucose + 10% FBS, 5.12 µM
[10] = RPMI 5 mM glucose + 10% FBS, 15.4 µM
[11] = RPMI 5 mM glucose + 10% FBS, 46.1 µM
[12] = RPMI 5 mM glucose + 10% dialyzed FBS, 0.000781 µM
[13] = RPMI 5 mM glucose + 10% dialyzed FBS, 0.00234 µM
[14] = RPMI 5 mM glucose + 10% dialyzed FBS, 0.00702 µM
[15] = RPMI 5 mM glucose + 10% dialyzed FBS, 0.0211 µM
[16] = RPMI 5 mM glucose + 10% dialyzed FBS, 0.0632 µM
[17] = RPMI 5 mM glucose + 10% dialyzed FBS, 0.19 µM
[18] = RPMI 5 mM glucose + 10% dialyzed FBS, 0.569 µM
[19] = RPMI 5 mM glucose + 10% dialyzed FBS, 1.71 µM
[20] = RPMI 5 mM glucose + 10% dialyzed FBS, 5.12 µM
[21] = RPMI 5 mM glucose + 10% dialyzed FBS, 15.4 µM
[22] = RPMI 5 mM glucose + 10% dialyzed FBS, 46.1 µM
[23] = HPLM + 10% dialyzed FBS, 0.000781 µM
[24] = HPLM + 10% dialyzed FBS, 0.00234 µM
[25] = HPLM + 10% dialyzed FBS, 0.00702 µM
[26] = HPLM + 10% dialyzed FBS, 0.0211 µM
[27] = HPLM + 10% dialyzed FBS, 0.0632 µM
[28] = HPLM + 10% dialyzed FBS, 0.19 µM
[29] = HPLM + 10% dialyzed FBS, 0.569 µM
[30] = HPLM + 10% dialyzed FBS, 1.71 µM
[31] = HPLM + 10% dialyzed FBS, 5.12 µM
[32] = HPLM + 10% dialyzed FBS, 15.4 µM
[33] = HPLM + 10% dialyzed FBS, 46.1 µM

Compound | cell viability [1] | cell viability [2] | cell viability [3] | cell viability [4] | cell viability [5] | cell viability [6] | cell viability [7] | cell viability [8] | cell viability [9] | cell viability [10] | cell viability [11] | cell viability [12] | cell viability [13] | cell viability [14] | cell viability [15] | cell viability [16] | cell viability [17] | cell viability [18] | cell viability [19] | cell viability [20] | cell viability [21] | cell viability [22] | cell viability [23] | cell viability [24] | cell viability [25] | cell viability [26] | cell viability [27] | cell viability [28] | cell viability [29] | cell viability [30] | cell viability [31] | cell viability [32] | cell viability [33]
CC[C@H]1OC(=O)[C@H](C)C(=O)[C@H](C)[C@@H](O[C@H]2O[C@H](C)C[C@H](N(C)C)[C@H]2O)[C@](C)(OC)C[C@@H](C)C(=O)[C@H](C)[C@H]2N(CCCCn3cnc(-c4cccnc4)c3)C(=O)O[C@]12C | 127% | 118% | 118% | 111% | 115% | 120% | 104% | 116% | 118% | 107% | 103% | 102% | 121% | 110% | 109% | 113% | 104% | 100% | 98.8% | 116% | 107% | 95.9% |  |  |  |  |  |  |  |  |  |  | 
CC1=CC(=CC(=C1C\C2=N\CCN2)C)C(C)(C)C | 99.3% | 98.7% | 92.9% | 100% | 114% | 96.3% | 98.4% | 91.1% | 69.5% | 51.5% | 43.9% | 86.8% | 106% | 101% | 100% | 109% | 99.8% | 116% | 78.9% | 49.1% | 56.8% | 50.7% | 91.4% | 115% | 107% | 129% | 104% | 109% | 108% | 87.7% | 57.4% | 34.2% | 35.9%
C=CC(=O)Nc1cc2c(Nc3ccc(F)c(Cl)c3)ncnc2cc1OCCCN1CCOCC1 | 123% | 119% | 126% | 124% | 128% | 108% | 104% | 110% | 103% | 88.2% | 94.3% | 116% | 111% | 117% | 108% | 120% | 109% | 105% | 101% | 80.5% | 73.4% | 90.4% | 111% | 127% | 121% | 132% | 114% | 104% | 108% | 105% | 76.5% | 59.1% | 72.7%
OCC(O)C(O)C(O)CO (stereo not drawn) | 84% | 99.3% | 92.6% | 84.4% | 89.9% | 87.7% | 84.9% | 85.8% | 82% | 82.1% | 80% | 77.9% | 86.8% | 112% | 96.2% | 106% | 106% | 103% | 84.9% | 89% | 72.5% | 94.6% | 98.8% | 88.8% | 87.7% | 104% | 81.7% | 92.4% | 99% | 86.3% | 96.7% | 70.2% | 80%
CNC(=O)c1ccc(Nc2cc(Nc3ccccc3[S+](=O)([O-])C(C)C)c3cc[nH]c3n2)nc1 | 98% | 100% | 101% | 103% | 102% | 106% | 108% | 102% | 49.2% | 51.9% | 25.1% | 89.1% | 99.1% | 101% | 106% | 102% | 102% | 109% | 95.7% | 57.2% | 56.7% | 34% | 98.4% | 105% | 111% | 105% | 116% | 102% | 108% | 91.7% | 77.6% | 70.6% | 31.7%
O=C(O)C(=O)c1cn(Cc2ccccc2)c2ccc(-c3ccc(OC(F)(F)F)cc3)cc12 | 93.5% | 94.8% | 90.3% | 109% | 96% | 100% | 104% | 89.6% | 97.8% | 96.1% | 89.5% | 106% | 96.8% | 104% | 119% | 97.8% | 95.3% | 100% | 85.2% | 93% | 98.4% | 80.8% | 101% | 102% | 105% | 107% | 108% | 108% | 110% | 81.4% | 91.3% | 90.6% | 88.5%
CCCCCCCCCCCCCC(=O)N[C@H](CO)[C@H](O)c1ccc([N+](=O)[O-])cc1 | 91.2% | 82.8% | 99.6% | 90.2% | 98.2% | 91.3% | 93% | 51% | 21.5% | 3.33% | 2.43% | 83.2% | 95% | 95.7% | 90.6% | 92.2% | 93% | 94.1% | 59.4% | 23.2% | 4.12% | 2.14% | 92.5% | 98.8% | 99.1% | 105% | 105% | 90.8% | 108% | 49.9% | 16.8% | 3.54% | 2.02%
Oc1nc(-c2ccc(C(F)(F)F)cc2)nc2c1CSCC2 | 88.5% | 88% | 93.5% | 91.8% | 95.5% | 97.9% | 96.2% | 87.6% | 85.8% | 104% | 88.2% | 92.6% | 99.8% | 105% | 94.3% | 98.1% | 102% | 91.8% | 102% | 98.4% | 99.4% | 90.4% | 125% | 90.4% | 96.4% | 81.1% | 98% | 93.4% | 111% | 98.4% | 118% | 94% | 100%
CC(C)c1cc(C(C)C)c(CC(=O)N[S+](=O)([O-])Oc2c(C(C)C)cccc2C(C)C)c(C(C)C)c1 | 96.3% | 89.8% | 88.6% | 82.8% | 94.8% | 87.8% | 105% | 93% | 98.3% | 90.5% | 86.9% | 95.9% | 89.4% | 91.4% | 89.7% | 87.4% | 91.4% | 97% | 84.5% | 90.8% | 87.9% | 65.3% | 103% | 110% | 93.9% | 114% | 112% | 88.6% | 92.2% | 98.8% | 100% | 92.5% | 88.9%
NC[C@H]1O[C@H](O[C@@H]2[C@H](O)[C@@H](O[C@H]3O[C@H](CO)[C@@H](O)[C@H](N)[C@H]3O)[C@H](N)C[C@@H]2N)[C@H](O)[C@@H](O)[C@@H]1O |  |  |  |  |  |  |  |  |  |  |  | 120% | 128% | 114% | 124% | 113% | 124% | 113% | 123% | 120% | 106% | 112% | 132% | 122% | 121% | 111% | 135% | 127% | 113% | 129% | 112% | 121% | 109%
COC(=O)c1ccc2c(c1)NC(=O)/C2=C(\Nc1ccc(N(C)C(=O)CN2CCN(C)CC2)cc1)c1ccccc1 | 98.3% | 96.8% | 96.5% | 97.4% | 89.3% | 110% | 109% | 97.8% | 92.6% | 83.4% | 83.1% | 92.7% | 93% | 94.7% | 90.8% | 93.5% | 95.2% | 85.3% | 88.9% | 88.5% | 96.8% | 98.5% | 92.1% | 92.1% | 106% | 99.5% | 106% | 91.3% | 89% | 103% | 87% | 91.9% | 84.4%
CC(=O)Oc1ccccc1C(=O)Nc1ncc([N+](=O)[O-])s1 | 84% | 92% | 93.4% | 96.4% | 115% | 92.3% | 102% | 103% | 104% | 97.6% | 96.9% | 83.7% | 95.2% | 77.7% | 86.3% | 94.8% | 98.8% | 95.7% | 98.4% | 86.3% | 69.2% | 75.1% | 98.9% | 100% | 98.9% | 107% | 111% | 105% | 106% | 96.1% | 98.4% | 71.8% | 89.4%
CN1CCCN(CC1)C2=CC=C3C(=O)\C(=C/4SC5=C(C=CC=C5)N4C3=N2)C(=O)NCC6=CN=C(C)C=N6 | 106% | 103% | 99.8% | 94.1% | 94.4% | 107% | 101% | 105% | 97.3% | 92.4% | 86.7% | 103% | 105% | 111% | 91.2% | 119% | 115% | 102% | 98.7% | 82.9% | 89% | 84.8% | 127% | 122% | 108% | 130% | 110% | 96.6% | 125% | 105% | 116% | 115% | 94.2%
CC#CCn1c(N2CCC[C@@H](N)C2)nc2c1c(=O)n(Cc1nc(C)c3ccccc3n1)c(=O)n2C | 97.6% | 93.7% | 101% | 90.3% | 89% | 96.3% | 102% | 89% | 88.1% | 91.1% | 82% | 104% | 96.6% | 112% | 87.7% | 101% | 105% | 100% | 96.3% | 93.8% | 97.7% | 91.7% | 97.8% | 97.2% | 100% | 88.2% | 108% | 110% | 104% | 87.8% | 98.3% | 114% | 75.1%
COc1cc2c(cc1OC)CN(CCc1ccc(NC(=O)c3cc(OC)c(OC)cc3NC(=O)c3cnc4ccccc4c3)cc1)CC2 | 107% | 106% | 123% | 118% | 123% | 118% | 127% | 106% | 107% | 107% | 96.5% | 118% | 122% | 113% | 126% | 115% | 126% | 116% | 124% | 120% | 102% | 91.5% | 118% | 121% | 123% | 122% | 128% | 122% | 109% | 119% | 114% | 95.3% | 94.1%

Reference: the supplement of paper PMC11451515
